{
  "source": "ChEMBL document CHEMBL3507680",
  "about": "“University of Dundee, Gates Library screen for HepG2 cell viability”",
  "data": [
    {"test": "Human HepG2 cell viability assay in 384 well format", "type": "toxicity, cell-based", "design": "dose 125 nL, time 70.5 hour; concentration not given beside the values", "settings": "HepG2 cells, read-out: Inhibition", "units": {"cytotoxicity at 70.5 h": "%"}, "values": [
      {"smiles": "CCC1CCCCCN1C(=O)c1coc(S(=O)(=O)N(C)C)c1", "note": "(stereo not drawn)", "cytotoxicity at 70.5 h": -12.3},
      {"smiles": "CCC(=O)N1CCCC(C(=O)c2cnn(-c3ccc(F)cc3)c2N)C1", "note": "(stereo not drawn)", "cytotoxicity at 70.5 h": -0.996},
      {"smiles": "CCNC(=O)NC(C)(C)C(=O)NCc1cccc(N2CC=CC2)c1", "cytotoxicity at 70.5 h": 2.33},
      {"smiles": "COc1cccc(-c2noc(CN3CCOCC3C)n2)c1", "note": "(stereo not drawn)", "cytotoxicity at 70.5 h": -2.13},
      {"smiles": "Cc1nnc(NC(=O)c2cc(S(=O)(=O)N3CCSCC3)c[nH]2)s1", "cytotoxicity at 70.5 h": -0.0324},
      {"smiles": "COCCC(=O)N1CCCC1c1cccc(C)c1C", "note": "(stereo not drawn)", "cytotoxicity at 70.5 h": 23.9},
      {"smiles": "COCCC1COC2(CCN(C(=O)C3CCC3)CC2)C1", "note": "(stereo not drawn)", "cytotoxicity at 70.5 h": -3.7},
      {"smiles": "CCCn1ccnc1-c1cccc(NC(=O)[C@H]2CCC(=O)N2)c1", "cytotoxicity at 70.5 h": 1.18},
      {"smiles": "COc1ccc(OCC(=O)NC(C)c2ccccc2)c(C(=O)O)c1", "note": "(stereo not drawn)", "cytotoxicity at 70.5 h": -7.12},
      {"smiles": "CCOc1ccc(C(=O)N2CCCC2Cn2cc(C)cn2)cn1", "note": "(stereo not drawn)", "cytotoxicity at 70.5 h": -5.61},
      {"smiles": "C[C@H](N)C(=O)N1CCC(c2[nH]ncc2-c2ccccc2)CC1", "cytotoxicity at 70.5 h": -4.88},
      {"smiles": "COc1ccc(CN2C[C@H](OCC3CCOCC3)[C@H]3COC[C@H]32)cc1", "cytotoxicity at 70.5 h": -9.69},
      {"smiles": "CN1CCCC1c1ccnc(-c2ccccc2)n1", "note": "(stereo not drawn)", "cytotoxicity at 70.5 h": -2.81},
      {"smiles": "O=C(CSCC1CC1)N1CCCC(c2nccn2Cc2cccnc2)C1", "note": "(stereo not drawn)", "cytotoxicity at 70.5 h": -9.29},
      {"smiles": "Cc1nc(CN2CCCC(NCc3nc4ccccc4s3)C2)no1", "note": "(stereo not drawn)", "cytotoxicity at 70.5 h": -17.4},
      {"smiles": "O=C(Nc1ccc(CCN2CCC(O)CC2)cc1)C1CCOCC1", "cytotoxicity at 70.5 h": 9.76},
      {"smiles": "COc1cc2nc3n(c(=O)c2cc1OC)CCN(C(=O)C(C)(C)C)CC3", "cytotoxicity at 70.5 h": -1.33},
      {"smiles": "CNC(=O)CN1CCC(OCc2ccc(Cl)c(Cl)c2)CC1", "cytotoxicity at 70.5 h": 3.41},
      {"smiles": "O=C(NCCC1CCCCO1)c1cc(COc2ccccc2F)[nH]n1", "note": "(stereo not drawn)", "cytotoxicity at 70.5 h": -4.49},
      {"smiles": "COCCOC1CCN(C(=O)NCc2coc3ccccc23)CC1", "cytotoxicity at 70.5 h": -6.59},
      {"smiles": "CC(=O)N1CCC(N2CCOC[C@H]2c2nc(-c3ccncc3)c[nH]2)CC1", "cytotoxicity at 70.5 h": -0.136},
      {"smiles": "COCC(=O)N1CC(c2csc(NC(C)=O)n2)C1", "cytotoxicity at 70.5 h": -3.83},
      {"smiles": "COc1ccccc1C1(CNc2snc(Cl)c2C#N)CCCC1", "cytotoxicity at 70.5 h": 19.8},
      {"smiles": "CCn1nc(C)c(C(C)Nc2cc(C3CCNCC3)nc(C)n2)c1C", "note": "(stereo not drawn)", "cytotoxicity at 70.5 h": -23.1},
      {"smiles": "CC(=O)N1CCC2(CC1)CN(C(=O)c1cccc3[nH]ccc13)CCO2", "cytotoxicity at 70.5 h": 27.3},
      {"smiles": "Cc1cc(CN2CCC(O)(Cn3ccc4ncccc43)CC2)c(C)s1", "cytotoxicity at 70.5 h": 4.82},
      {"smiles": "CC(C)NC(=O)NCc1ccc(C(=O)NC(C)Cn2cccn2)cc1", "note": "(stereo not drawn)", "cytotoxicity at 70.5 h": -13.2},
      {"smiles": "COc1cccc(N2CC3(CCN(Cc4nccn4C)C3)CC2=O)c1", "note": "(stereo not drawn)", "cytotoxicity at 70.5 h": -16.5},
      {"smiles": "N#Cc1ccc(SCCOCCO)c(Cl)c1", "cytotoxicity at 70.5 h": -5.04},
      {"smiles": "Cc1nn(C)c(Cl)c1C1CCCN1CCc1ccccn1", "note": "(stereo not drawn)", "cytotoxicity at 70.5 h": 1.44},
      {"smiles": "CCC1=NC2(CCC(C(=O)Nc3ccc(C)nc3)CC2)C(=O)N1C", "note": "(stereo not drawn)", "cytotoxicity at 70.5 h": -2.35},
      {"smiles": "O=C1CC2(CCSC2)C(=O)N1Cc1coc(-c2cccc(F)c2)n1", "note": "(stereo not drawn)", "cytotoxicity at 70.5 h": -2.41},
      {"smiles": "COc1cccc2c1OCC(CNC(=O)Cn1ccnc1C)C2", "note": "(stereo not drawn)", "cytotoxicity at 70.5 h": -0.227},
      {"smiles": "COCC(=O)N1CCC2(CC1)COC(COCc1ccccn1)C2", "note": "(stereo not drawn)", "cytotoxicity at 70.5 h": 1.98},
      {"smiles": "c1ccc(-c2cnc(CNC3CCc4ncnn4C3)o2)cc1", "note": "(stereo not drawn)", "cytotoxicity at 70.5 h": 0.0931},
      {"smiles": "CCOCCCNC(=O)NCc1c(C)nn(C)c1C", "cytotoxicity at 70.5 h": 22.3},
      {"smiles": "Cc1ccc(C(CNCc2nccn2C)N2CCOCC2)s1", "note": "(stereo not drawn)", "cytotoxicity at 70.5 h": -2.09},
      {"smiles": "O=C(NCc1cccs1)c1nc2c(o1)CN(CC1CC1)C2", "cytotoxicity at 70.5 h": -9.19},
      {"smiles": "CC(OCC1CC1)C(=O)NCc1cccc(CN2CCN(C)CC2)c1", "note": "(stereo not drawn)", "cytotoxicity at 70.5 h": 5.66},
      {"smiles": "CC(C)NC(=O)[C@@H]1Cc2[nH]cnc2CN1CCCc1ccccc1", "cytotoxicity at 70.5 h": 6.69},
      {"smiles": "O=S(=O)(C1CC1)N1CCO[C@@H]2CN(Cc3cccs3)C[C@@H]2C1", "cytotoxicity at 70.5 h": -5.47},
      {"smiles": "COc1ccc(CN2CC[C@@H]3[C@H]2CCC(=O)N3c2cnn(C)c2)cc1", "cytotoxicity at 70.5 h": 5.08},
      {"smiles": "CC(NC(=O)NCCCN(C)C)c1ccc2c(c1)CCC(=O)N2", "note": "(stereo not drawn)", "cytotoxicity at 70.5 h": -10.2},
      {"smiles": "COCC1CN(Cc2cc(C)on2)Cc2cn(C)nc21", "note": "(stereo not drawn)", "cytotoxicity at 70.5 h": 3.15},
      {"smiles": "COCCSCC(=O)NC1(c2cccc(Br)c2)CC1", "cytotoxicity at 70.5 h": -2.67},
      {"smiles": "Cc1cnn(CC2CCN(CC(O)COc3ccc(F)cc3)CC2)c1", "note": "(stereo not drawn)", "cytotoxicity at 70.5 h": 26.5},
      {"smiles": "CC(C)(C)OC(=O)N1CSC[C@@H]1C(=O)NCc1ccc(C#N)cc1", "cytotoxicity at 70.5 h": -3.01},
      {"smiles": "CC(C)OCCC(=O)N(C)c1ccc(F)c(Cl)c1", "cytotoxicity at 70.5 h": -4.66},
      {"smiles": "COc1nccnc1N1CCN(Cc2ccc(F)cc2)C(=O)C1", "cytotoxicity at 70.5 h": 24.6},
      {"smiles": "CC(C)CC(NCc1cccs1)c1ccccn1", "note": "(stereo not drawn)", "cytotoxicity at 70.5 h": -13.2},
      {"smiles": "O=c1[nH]nc(SCC2CCCO2)n1C1CC1", "note": "(stereo not drawn)", "cytotoxicity at 70.5 h": -6.11},
      {"smiles": "CCOc1ccc(CC(CNC(=O)c2ccc(C)s2)C(N)=O)cc1", "note": "(stereo not drawn)", "cytotoxicity at 70.5 h": 4.65},
      {"smiles": "CCS(=O)(=O)N1CC[C@@H]2[C@@H](CCC(=O)N2CCc2ccccc2)C1", "cytotoxicity at 70.5 h": 1.58},
      {"smiles": "CC(C)c1ocnc1C(=O)N1CCC(=O)Nc2cccnc21", "cytotoxicity at 70.5 h": -13.9},
      {"smiles": "CC(c1ccco1)N(C(=O)CNc1ccc(C#N)cc1)C1CC1", "note": "(stereo not drawn)", "cytotoxicity at 70.5 h": 4.38},
      {"smiles": "c1ccc(COC[C@@H]2CCC[C@@]23CNCCO3)nc1", "cytotoxicity at 70.5 h": 14.4},
      {"smiles": "Cc1cc(C(=O)Nc2nc3c(s2)CN(S(=O)(=O)C2CC2)CC3)c(C)o1", "cytotoxicity at 70.5 h": 4.31},
      {"smiles": "Cc1ccoc1C(=O)NC1CCN(C(=O)Nc2ccccn2)CC1", "cytotoxicity at 70.5 h": -5.66}
    ]}
  ]
}
